Measurements: PubChem BioAssay (NCI)
“And” between values parts separate entries of the source, which are not always exact repeats. Equal values may be shown once.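 Results reflect a 48-hour exposure of cells in 96-well plates to compound at five concentrations. Abbreviation: GI50, concentration required for 50% inhibition of growth. TGI marks complete inhibition of growth.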

Assays:
Assay in all cases: growth of human tumour cells (NCI), 48 h; in the data active = GI50 below about 0.43 µM; inactive = the rest
RPMI-8226 leukemia = tested on: RPMI-8226 leukemia
SK-MEL-5 melanoma = tested on: SK-MEL-5 melanoma
SF-295 CNS = tested on: SF-295 CNS
KM12 colon = tested on: KM12 colon
SF-268 CNS = tested on: SF-268 CNS
MDA-MB-231 breast = tested on: MDA-MB-231 breast
OVCAR-3 ovarian = tested on: OVCAR-3 ovarian
TK-10 renal = tested on: TK-10 renal
U251 CNS = tested on: U251 CNS
T-47D breast = tested on: T-47D breast

CCCN1C(=O)CN(S(=O)(=O)c2ccc(Cl)cc2)C1=O
> 100 µM: TGI (RPMI-8226 leukemia) | TGI (SK-MEL-5 melanoma) | TGI (SF-295 CNS) | TGI (KM12 colon) | TGI (SF-268 CNS) | TGI (MDA-MB-231 breast) | TGI (OVCAR-3 ovarian) | TGI (TK-10 renal) | TGI (U251 CNS) | TGI (T-47D breast)

O[C@@H]1[C@H](OC2c3ccccc3-c3ccccc32)[C@H](OCc2ccccc2)[C@@H]2OC[C@H]1O2
> 100 µM: TGI (RPMI-8226 leukemia) | TGI (SK-MEL-5 melanoma) | TGI (SF-295 CNS) | TGI (KM12 colon) | TGI (SF-268 CNS) | TGI (MDA-MB-231 breast) | TGI (OVCAR-3 ovarian) | TGI (TK-10 renal) | TGI (U251 CNS) | TGI (T-47D breast)

CC1(C)CC(=O)C(C(=O)Nc2cccs2)=C(O)C1
> 100 µM: TGI (RPMI-8226 leukemia) | TGI (SK-MEL-5 melanoma) | TGI (SF-295 CNS) | TGI (KM12 colon) | TGI (SF-268 CNS) | TGI (OVCAR-3 ovarian) | TGI (TK-10 renal) | TGI (U251 CNS)

Cc1ccc2c(c1C)CC1(Cc3ccc(C)c(C)c3C1=O)C2=O (centres undefined)
> 100 µM: TGI (RPMI-8226 leukemia) | TGI (SK-MEL-5 melanoma) | TGI (SF-295 CNS) | TGI (KM12 colon) | TGI (SF-268 CNS) | TGI (MDA-MB-231 breast) | TGI (OVCAR-3 ovarian) | TGI (TK-10 renal) | TGI (U251 CNS) | TGI (T-47D breast)

COc1ccc(/C=C2\C[C@H]3[C@@H]4CC=C5C[C@@H](O)CC[C@]5(C)[C@H]4CC[C@]3(C)\C2=N\O)cc1
34.8 µM: TGI (SF-295 CNS)
> 100 µM: TGI (KM12 colon) | TGI (MDA-MB-231 breast) | TGI (TK-10 renal) | TGI (U251 CNS)
4.68 µM: TGI (T-47D breast)
29.7 µM: TGI (OVCAR-3 ovarian)
23.3 µM: TGI (SK-MEL-5 melanoma)
21.9 µM: TGI (RPMI-8226 leukemia)
46.2 µM: TGI (SF-268 CNS)

Cc1ccc2c(=O)cc(-c3cc(C)sc3C)[nH]c2n1
> 100 µM: TGI (KM12 colon) | TGI (TK-10 renal) | TGI (U251 CNS) | TGI (T-47D breast)
16.4 µM: TGI (SK-MEL-5 melanoma)
7.54 µM: TGI (SF-295 CNS)
> 20.5 µM: TGI (RPMI-8226 leukemia)
65.8 µM: TGI (MDA-MB-231 breast)
> 73.4 µM: TGI (SF-268 CNS)
58.6 µM: TGI (OVCAR-3 ovarian)

COC(=O)C1=C(OC)C(=P2(c3ccccc3)CC(c3ccccc3)=C2c2ccccc2)C(C(=O)OC)=C1C(=O)OC (centres undefined)
> 81.9 µM: TGI (SK-MEL-5 melanoma)
> 51.5 µM: TGI (T-47D breast)
> 76 µM: TGI (TK-10 renal)
> 31.2 µM: TGI (RPMI-8226 leukemia)
> 100 µM: TGI (SF-295 CNS) | TGI (KM12 colon) | TGI (SF-268 CNS) | TGI (MDA-MB-231 breast) | TGI (OVCAR-3 ovarian) | TGI (U251 CNS)

C/C=C(/CCC1NCCc2c1[nH]c1ccccc21)[Si](C)(C)C (centres undefined)
> 100 µM and 24.8 µM: TGI (TK-10 renal)
> 100 µM and 13.9 µM: TGI (OVCAR-3 ovarian)
> 100 µM and 19.2 µM: TGI (SF-295 CNS)
> 100 µM and 11.8 µM: TGI (SK-MEL-5 melanoma)
> 100 µM and 29 µM: TGI (SF-268 CNS)
> 100 µM and 12.1 µM: TGI (KM12 colon)
inactive: GI50 (TK-10 renal) > 100 µM and 12.2 µM
> 100 µM and 13.6 µM: TGI (U251 CNS)

CCOc1ccc(NC(=O)C(=O)C(/C(=N/N)C(=O)OC)c2nc3ccc([N+](=O)[O-])cc3[nH]c2=O)cc1 (centres undefined)
> 100 µM: TGI (RPMI-8226 leukemia) | TGI (SK-MEL-5 melanoma) | TGI (SF-295 CNS) | TGI (KM12 colon) | TGI (SF-268 CNS) | TGI (MDA-MB-231 breast) | TGI (OVCAR-3 ovarian) | TGI (TK-10 renal) | TGI (U251 CNS) | TGI (T-47D breast)

Cc1cccc(C)c1NC(=O)C(=O)CC(=O)c1sc(Nc2c(C)cccc2C)nc1C
> 100 µM: TGI (RPMI-8226 leukemia) | TGI (SF-295 CNS) | TGI (KM12 colon) | TGI (SF-268 CNS) | TGI (MDA-MB-231 breast) | TGI (OVCAR-3 ovarian) | TGI (TK-10 renal) | TGI (U251 CNS) | TGI (T-47D breast)

C=C1CC[C@@H]2[C@](C)(COC(=O)CCC(=O)OC)CCC[C@@]2(C)[C@@H]1CCC1=CC(=O)OC1
34.2 µM: TGI (RPMI-8226 leukemia)
> 100 µM: TGI (SK-MEL-5 melanoma) | TGI (SF-295 CNS) | TGI (KM12 colon) | TGI (MDA-MB-231 breast) | TGI (OVCAR-3 ovarian) | TGI (TK-10 renal) | TGI (U251 CNS)
73 µM: TGI (T-47D breast)

CCOC(=O)c1c(Cl)c2c(n1Cc1ccccc1)-c1oncc1CCC2
inactive: GI50 (RPMI-8226 leukemia) 3.27 µM | GI50 (SK-MEL-5 melanoma) 3.53 µM | GI50 (SF-295 CNS) > 100 µM | GI50 (KM12 colon) 3.71 µM | GI50 (SF-268 CNS) > 100 µM | GI50 (MDA-MB-231 breast) 3.51 µM | GI50 (TK-10 renal) > 100 µM | GI50 (T-47D breast) 2.69 µM
> 100 µM: TGI (RPMI-8226 leukemia) | TGI (SK-MEL-5 melanoma) | TGI (SF-295 CNS) | TGI (KM12 colon) | TGI (SF-268 CNS) | TGI (MDA-MB-231 breast) | TGI (TK-10 renal) | TGI (T-47D breast)

N#CCc1nc(-c2cc3ccccc3oc2=O)cs1
64 µM: TGI (SK-MEL-5 melanoma)
> 100 µM: TGI (RPMI-8226 leukemia) | TGI (SF-295 CNS) | TGI (KM12 colon) | TGI (SF-268 CNS) | TGI (MDA-MB-231 breast) | TGI (TK-10 renal) | TGI (U251 CNS) | TGI (T-47D breast)

COc1ccc(OC/C(N)=N/NC(=O)c2ccncc2)cc1
> 100 µM: TGI (RPMI-8226 leukemia) | TGI (SF-295 CNS) | TGI (KM12 colon) | TGI (SF-268 CNS) | TGI (MDA-MB-231 breast) | TGI (OVCAR-3 ovarian) | TGI (TK-10 renal) | TGI (U251 CNS) | TGI (T-47D breast)

CCOC(=O)c1cn(-c2ccc([N+](=O)[O-])cc2)c(=S)n2c1nc1ccccc12
> 100 µM: TGI (RPMI-8226 leukemia) | TGI (SK-MEL-5 melanoma) | TGI (SF-295 CNS) | TGI (KM12 colon) | TGI (MDA-MB-231 breast) | TGI (OVCAR-3 ovarian) | TGI (U251 CNS) | TGI (T-47D breast)

CN(/N=C/c1ccccn1)C1=NCCN1
> 100 µM: TGI (RPMI-8226 leukemia) | TGI (SK-MEL-5 melanoma) | TGI (SF-295 CNS) | TGI (KM12 colon) | TGI (SF-268 CNS) | TGI (MDA-MB-231 breast) | TGI (OVCAR-3 ovarian) | TGI (U251 CNS) | TGI (T-47D breast)

CC(C)(C)C1CC[C@H]2c3c([nH]c4ccccc34)[C@H]3C(=O)N(c4ccc(F)cc4)C(=O)[C@H]3[C@H]2C1 (some centres undefined)
20.8 µM: TGI (U251 CNS)
28.3 µM: TGI (SF-295 CNS)
35.8 µM: TGI (SK-MEL-5 melanoma)
27.8 µM: TGI (KM12 colon)
31 µM: TGI (OVCAR-3 ovarian)
30.8 µM: TGI (SF-268 CNS) | TGI (TK-10 renal)

Cc1csc(=Nc2ccccc2)n1CCC(O)(P(=O)(O)O)P(=O)(O)O
> 100 µM: TGI (SK-MEL-5 melanoma) | TGI (SF-295 CNS) | TGI (KM12 colon) | TGI (SF-268 CNS) | TGI (MDA-MB-231 breast) | TGI (OVCAR-3 ovarian) | TGI (TK-10 renal)

COc1ccc(OC)c(/C=C2/C(=O)N=C(NC(C)=O)N2C)c1
> 100 µM: TGI (SK-MEL-5 melanoma) | TGI (SF-295 CNS) | TGI (KM12 colon) | TGI (SF-268 CNS) | TGI (MDA-MB-231 breast) | TGI (OVCAR-3 ovarian) | TGI (TK-10 renal) | TGI (U251 CNS)

CCN(C(=O)N[C@@H](CC(C)C)C(=O)NCC(=O)OC)c1ccccc1
> 100 µM: TGI (RPMI-8226 leukemia) | TGI (SK-MEL-5 melanoma) | TGI (SF-295 CNS) | TGI (KM12 colon) | TGI (MDA-MB-231 breast) | TGI (OVCAR-3 ovarian) | TGI (TK-10 renal) | TGI (U251 CNS) | TGI (T-47D breast)

COC(=O)C1(CCCCl)CCCN1C(=O)OC(C)(C)C (centres undefined)
> 100 µM: TGI (SK-MEL-5 melanoma) | TGI (SF-295 CNS) | TGI (KM12 colon) | TGI (SF-268 CNS) | TGI (MDA-MB-231 breast) | TGI (OVCAR-3 ovarian) | TGI (TK-10 renal) | TGI (U251 CNS) | TGI (T-47D breast)

C[C@H]1CCC/C=C/[C@@H]2C[C@H](OC(=O)CN(C)C)C[C@H]2[C@H](O)/C=C/C(=O)O1
0.0327 µM: TGI (MDA-MB-231 breast)
> 26.8 µM: TGI (OVCAR-3 ovarian)
> 100 µM: TGI (SF-295 CNS) | TGI (SF-268 CNS) | TGI (U251 CNS)
0.235 µM: TGI (KM12 colon)
1.93 µM: TGI (TK-10 renal)
0.0944 µM: TGI (SK-MEL-5 melanoma)
> 26.6 µM: TGI (RPMI-8226 leukemia)
